Source: patent US9732065B2, “Cyclic aminomethyl pyrimidine derivative” (Sumitomo Dainippon Pharma Co., Ltd., priority 2013, dated 2017)

Experiments:
[1] = test system: rat after prenatal exposure to valproic acid; experiment: Social impairments in rat after prenatal exposure to valproic acid, three-chamber test; assay type: in vivo; conditions: oral, 1 mg/kg
Excerpt: A rat exposed to valproic acid on the 12.5 days of fetal life has been widely used as an autistic rat model with high validity. It is known that the rat has a social cognitive disorder through the three-chamber test which is a test for evaluating sociability. Thus, the rat was pretreated with the present compound to evaluate the improved effect of the present compound on social cognition. In this study, a sociability cage (600 mm×400 mm×220 mm, Muromachi Kikai Co., Ltd.) was used. Specifically, a 3-week-old rat after prenatal exposure to valproic acid received the oral administration of the present compound, and the time that the rat stayed in close to another rat side or a novel object was measured for 10 minutes from 30 minutes after the administration. The ratio of the time for another rat side to the time for a novel object that is defined as 100% was calculated to evaluate the improvement ratio (%) of the present compound on the basis of the result of the vehicle-treated group. The improvement ratio after the oral administration of the compound of Example 5 (1 mg/kg) was 27.6%.

[2] = target: T1, human adrenergic α2A receptor (Homo sapiens, UniProt P08913); experiment: Agonistic/antagonistic activity in G protein dependent pathway (aequorin intracellular calcium luminescence), α2A; assay type: cell-based; conditions: for Maximal activity on each receptor (%): α2A: 10 μM adrenaline = 100%; for inhibition at 0.1 µM / inhibition at 1 µM: against 10 μM endogenous ligand, read-out: Inhibitory activity on each receptor (%): α2A
T1 construct: expressed in transfected cells; host or cells: CHO-K1 or HEK293 cells
T1 sequence (P08913 1-465): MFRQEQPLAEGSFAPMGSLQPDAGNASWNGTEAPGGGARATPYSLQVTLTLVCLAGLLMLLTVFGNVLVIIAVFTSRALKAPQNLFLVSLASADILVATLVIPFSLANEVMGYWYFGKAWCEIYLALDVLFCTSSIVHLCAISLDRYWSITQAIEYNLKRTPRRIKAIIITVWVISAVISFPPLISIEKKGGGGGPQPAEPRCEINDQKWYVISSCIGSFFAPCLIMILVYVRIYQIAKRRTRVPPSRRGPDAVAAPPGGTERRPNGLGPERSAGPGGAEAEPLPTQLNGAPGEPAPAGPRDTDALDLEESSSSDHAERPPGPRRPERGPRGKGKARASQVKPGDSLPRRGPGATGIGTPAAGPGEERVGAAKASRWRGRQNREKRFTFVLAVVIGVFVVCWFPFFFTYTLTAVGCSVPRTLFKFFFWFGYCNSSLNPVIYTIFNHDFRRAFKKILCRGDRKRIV
Description: (§1) Plasmids encoding each receptor, aequorin and Gα16 were prepared, and the plasmids were transfected into CHO cells (Chinese Hamster Ovary cells) or HEK293 cells (Human Embryonic Kidney 293 cells) to prepare expressing cell lines.
(§2) The agonistic or antagonistic activity of the present compound in the G protein dependent pathway was evaluated on the basis of intracellular calcium levels as follows. CHO-K1 or HEK293 cell lines transfected with D2, D4, α1A, or α2A receptor genes were seeded in a 384-well plate, and incubated in a CO2 incubator at 37° C. for 24 hours, and then a solution of the present compound in DMSO was added into cells preloaded with coelenterazine to measure the change in luminescent signals with a FDSS (Hamamatsu Photonics K.K.). […] The agonistic activity of the present compound was calculated according to the measured luminescent signals, as the maximal activity (Emax) of the present compound. On the other hand, the antagonistic activity of the present compound was calculated according to the luminescent signals in wells with 10 μM of an endogenous ligand alone defined as 100%, as the inhibitory activity of the present compound to an endogenous ligand. EC50 value was calculated as the concentration of the present compound required to achieve a 50% response, and IC50 was calculated as the concentration of the present compound required to achieve a 50% inhibition of the Emax of an endogenous ligand.

SHR rat = experiment: Inattention in SHR rat, Y-shaped maze test; assay type: in vivo; conditions: oral, 1 mg/kg
Description: It is known that a SHR rat has a lower spontaneous alternation behavior ratio than a WKY rat which is a background animal through the Y-shaped maze test. Thus, the SHR rat was pretreated with the present compound to evaluate the pharmacological effect of the present compound on attention function. Specifically, a 4-week-old SHR rat received the oral administration of the present compound, and a spontaneous alternation behavior ratio in the rat was measured for 8 minutes from 30 minutes after the administration. The improved spontaneous alternation behavior ratio (%) was calculated as a numerical value on the basis of the spontaneous alternation behavior ratio in the vehicle administration group. In this study, a Y-shaped maze device (black acrylic: 450 mm×100 mm×350 mm, Horikawa Manufacturing Co., Ltd.) was used.

[3] = target: T2, Human dopamine D4 receptor (Homo sapiens, UniProt P21917); experiment: Agonistic/antagonistic activity in G protein dependent pathway (aequorin intracellular calcium luminescence), D4; assay type: cell-based; parameters: expressed in transfected cells; host or cells: CHO-K1 or HEK293 cells; conditions: for inhibition at 0.1 µM / inhibition at 1 µM: against 10 μM endogenous ligand, read-out: Inhibitory activity on each receptor (%): D4; for Emax at 0.1 µM / Emax at 1 µM: read-out: Maximal activity on each receptor (%): D4
T2 sequence (P21917 1-419): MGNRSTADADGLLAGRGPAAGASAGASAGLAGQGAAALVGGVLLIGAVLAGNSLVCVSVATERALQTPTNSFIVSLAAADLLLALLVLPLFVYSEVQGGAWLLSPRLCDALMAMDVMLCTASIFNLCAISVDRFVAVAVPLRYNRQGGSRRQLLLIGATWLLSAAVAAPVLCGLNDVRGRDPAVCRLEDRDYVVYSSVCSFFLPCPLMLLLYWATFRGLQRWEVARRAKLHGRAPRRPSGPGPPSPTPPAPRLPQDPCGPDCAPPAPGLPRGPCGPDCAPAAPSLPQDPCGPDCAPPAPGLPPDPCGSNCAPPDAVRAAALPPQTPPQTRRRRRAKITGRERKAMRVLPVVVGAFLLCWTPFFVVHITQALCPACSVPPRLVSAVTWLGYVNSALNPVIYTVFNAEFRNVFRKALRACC
Description: as §1, §2

Structure (SMILES) | time that the rat stayed in close to another rat side [1] | improvement ratio (%) ([1]; time for another rat side vs novel object, relative to vehicle) | Maximal activity on each receptor (%): α2A ([2]; 0.1 μM) [%] | inhibition at 0.1 µM ([2]; 0.1 μM) [%] | Maximal activity on each receptor (%): α2A ([2]; 1 μM) [%] | inhibition at 1 µM ([2]; 1 μM) [%] | spontaneous alternation behavior ratio (SHR rat) | inhibition at 0.1 µM [3] [%] | inhibition at 1 µM [3] [%] | Emax at 0.1 µM [3] [%] | Emax at 1 µM [3] [%]
Cc1ncc(CN2CCC(c3ccccn3)CC2)c(N)n1 [Example 5, 2-Methyl-5-[4-(pyridin-2-yl)piperidin-1-ylmethyl]pyrimidin-4-amine] | significantly increased | 27.6 | −0.17 | -7 | −0.04 | -1.7 | significantly improved | 78 | 90 | 59 | 74
Cc1ncc(CN2CCC(c3cncc(F)c3)CC2)cn1 [Example 33, 5-[4-(5-Fluoropyridin-3-yl)piperidin-1-ylmethyl]-2-methylpyrimidine] |  |  | −0.1 | 0.91 | −0.12 | 7.8 |  | 76 | 98 | 28 | 51
Nc1ncc(CN2CCC(c3cccnc3)CC2)cn1 [Example 37] |  |  | −0.17 | 7.9 | −0.27 | 0.24 |  | 64 | 77 | 18 | 40
